Measured values taken from the NIST ThermoML archive (doi:10.1021/je100472t).

Experiment: xn = mol fraction of the nth substance listed
Conditions: 101 kPa, Liquid; for speed of sound: Pulse-echo method; for mass density: Vibrating tube method

CNc1ccccc1 [N-methylaniline] + CCC(C)=O
Conditions | mass density [kg/m3] | speed of sound [m/s]
293.15 K, x2 = 0.0627 | 977.942 | 1562.9
293.15 K, x2 = 0.1133 | 970.977 | 1546.9
293.15 K, x2 = 0.1564 | 964.888 | 1532.9
293.15 K, x2 = 0.2058 | 957.75 | 1517
293.15 K, x2 = 0.2538 | 950.572 | 1501
293.15 K, x2 = 0.3018 | 943.182 | 1484.8
293.15 K, x2 = 0.3464 | 936.057 | 1469.4
293.15 K, x2 = 0.3938 | 928.444 | 1453
293.15 K, x2 = 0.4435 | 920.205 | 1435.6
293.15 K, x2 = 0.4907 | 912.022 | 1418.5
293.15 K, x2 = 0.5508 | 901.21 | 1396.2
293.15 K, x2 = 0.5959 | 892.779 | 1378.9
293.15 K, x2 = 0.6529 | 881.753 | 1356.6
293.15 K, x2 = 0.7489 | 862.241 | 1318.2
293.15 K, x2 = 0.7938 | 852.894 | 1300
293.15 K, x2 = 0.8492 | 840.63 | 1277
293.15 K, x2 = 0.8981 | 829.68 | 1256.7
293.15 K, x2 = 0.9525 | 816.716 | 1232.9
298.15 K, x2 = 0.076 | 972.066 | 1540.1
298.15 K, x2 = 0.1115 | 967.149 | 1528.8
298.15 K, x2 = 0.1566 | 960.718 | 1514.2
298.15 K, x2 = 0.2076 | 953.334 | 1497.6
298.15 K, x2 = 0.2589 | 945.633 | 1480.6
298.15 K, x2 = 0.2967 | 939.765 | 1467.7
298.15 K, x2 = 0.3471 | 931.809 | 1450.5
298.15 K, x2 = 0.3973 | 923.563 | 1432.8
298.15 K, x2 = 0.4477 | 915.055 | 1414.8
298.15 K, x2 = 0.495 | 906.694 | 1397.2
298.15 K, x2 = 0.5471 | 897.284 | 1377.8
298.15 K, x2 = 0.5992 | 887.579 | 1357.9
298.15 K, x2 = 0.6921 | 869.471 | 1321.7
298.15 K, x2 = 0.7463 | 858.202 | 1299.5
298.15 K, x2 = 0.8007 | 846.555 | 1277
298.15 K, x2 = 0.847 | 836.277 | 1257.5
298.15 K, x2 = 0.8993 | 824.346 | 1235.1
298.15 K, x2 = 0.9472 | 813 | 1214.5
303.15 K, x2 = 0.0641 | 969.669 | 1526
303.15 K, x2 = 0.1123 | 962.964 | 1510.7
303.15 K, x2 = 0.1581 | 956.434 | 1495.9
303.15 K, x2 = 0.2036 | 949.789 | 1481.1
303.15 K, x2 = 0.2591 | 941.381 | 1462.5
303.15 K, x2 = 0.3061 | 934.049 | 1446.5
303.15 K, x2 = 0.3513 | 926.789 | 1430.8
303.15 K, x2 = 0.4022 | 918.424 | 1412.9
303.15 K, x2 = 0.4472 | 910.653 | 1396.5
303.15 K, x2 = 0.5025 | 900.926 | 1376.1
303.15 K, x2 = 0.5536 | 891.605 | 1356.9
303.15 K, x2 = 0.5984 | 883.203 | 1339.7
303.15 K, x2 = 0.6489 | 873.485 | 1320.1
303.15 K, x2 = 0.6969 | 863.705 | 1300.7
303.15 K, x2 = 0.7543 | 851.719 | 1277.1
303.15 K, x2 = 0.8047 | 840.797 | 1256
303.15 K, x2 = 0.8497 | 830.818 | 1237.1
303.15 K, x2 = 0.8965 | 819.999 | 1216.8
303.15 K, x2 = 0.9524 | 806.615 | 1192.2

Nc1ccccc1 [aniline] + CCC(C)=O
Conditions | mass density [kg/m3] | speed of sound [m/s]
293.15 K, x2 = 0.058 | 1011.29 | 1633.7
293.15 K, x2 = 0.1122 | 1001.34 | 1612.2
293.15 K, x2 = 0.1576 | 993.678 | 1594.7
293.15 K, x2 = 0.2052 | 985.068 | 1576
293.15 K, x2 = 0.2543 | 976.056 | 1556.7
293.15 K, x2 = 0.3043 | 966.42 | 1536.6
293.15 K, x2 = 0.3562 | 956.208 | 1515.5
293.15 K, x2 = 0.4059 | 946.279 | 1495.2
293.15 K, x2 = 0.453 | 936.5 | 1475.2
293.15 K, x2 = 0.5048 | 925.617 | 1453.2
293.15 K, x2 = 0.5443 | 917.103 | 1435.8
293.15 K, x2 = 0.612 | 902.143 | 1405.4
293.15 K, x2 = 0.648 | 894.022 | 1389
293.15 K, x2 = 0.7044 | 880.787 | 1362.1
293.15 K, x2 = 0.7754 | 863.737 | 1328.6
293.15 K, x2 = 0.8081 | 855.598 | 1311.3
293.15 K, x2 = 0.8493 | 845.213 | 1290.5
293.15 K, x2 = 0.9027 | 831.249 | 1262.9
293.15 K, x2 = 0.9476 | 819.373 | 1239.6
298.15 K, x2 = 0.056 | 1007.34 | 1615.4
298.15 K, x2 = 0.1188 | 997.647 | 1593.6
298.15 K, x2 = 0.1547 | 990.216 | 1576.9
298.15 K, x2 = 0.2038 | 981.189 | 1557.5
298.15 K, x2 = 0.2563 | 971.23 | 1536.5
298.15 K, x2 = 0.3064 | 961.559 | 1516.3
298.15 K, x2 = 0.3474 | 953.414 | 1499.6
298.15 K, x2 = 0.4089 | 940.989 | 1474.1
298.15 K, x2 = 0.4523 | 932.032 | 1455.8
298.15 K, x2 = 0.5026 | 921.385 | 1434.1
298.15 K, x2 = 0.5467 | 911.916 | 1414.9
298.15 K, x2 = 0.6019 | 899.666 | 1390
298.15 K, x2 = 0.6481 | 889.131 | 1368.5
298.15 K, x2 = 0.7048 | 875.989 | 1341.9
298.15 K, x2 = 0.7451 | 866.153 | 1322
298.15 K, x2 = 0.803 | 851.853 | 1293.2
298.15 K, x2 = 0.8487 | 840.349 | 1270.1
298.15 K, x2 = 0.9019 | 826.554 | 1242.8
298.15 K, x2 = 0.9489 | 813.934 | 1218
303.15 K, x2 = 0.0582 | 1002.61 | 1596.1
303.15 K, x2 = 0.1097 | 993.104 | 1575.6
303.15 K, x2 = 0.1485 | 986.049 | 1560.3
303.15 K, x2 = 0.205 | 975.667 | 1538
303.15 K, x2 = 0.2507 | 967.388 | 1520.3
303.15 K, x2 = 0.3064 | 956.964 | 1497.9
303.15 K, x2 = 0.3426 | 949.873 | 1483
303.15 K, x2 = 0.414 | 935.434 | 1453.3
303.15 K, x2 = 0.447 | 928.634 | 1439.5
303.15 K, x2 = 0.491 | 919.218 | 1420.3
303.15 K, x2 = 0.5537 | 905.656 | 1392.7
303.15 K, x2 = 0.6044 | 894.417 | 1369.8
303.15 K, x2 = 0.6434 | 885.415 | 1351.5
303.15 K, x2 = 0.7038 | 871.181 | 1322.6
303.15 K, x2 = 0.7716 | 854.721 | 1289.4
303.15 K, x2 = 0.8079 | 845.614 | 1271.1
303.15 K, x2 = 0.8481 | 835.388 | 1250.6
303.15 K, x2 = 0.8988 | 822.096 | 1224.2
303.15 K, x2 = 0.9466 | 809.221 | 1199
